Earlier results as cited in US20250375533A1, “Sublingual Formulation of Anticancer Compound for Use in the Treatment of Autoimmune Neurodegenerative Diseases” (Vektor Pharma TF GmbH, priority 2022, published 2025).
Where two headings read alike, the source gives them in different places.

Tests used:
[1] = in vivo
[2] = 37° C.
[3] = pH 1.4 solution; for active substance maintained: with cyclodextrins
[4] = oral solution without HPβCD
[5] = administered rectally
[6] = saliva
Clostridium perfringens = Clostridium perfringens culture
Escherichia coli = Escherichia coli culture
[7] = target: BCRP (ABCG2) transporter proteins (Homo sapiens, UniProt Q9UNQ0)
BCRP (ABCG2) transporter proteins, sequence (Q9UNQ0 whole entry): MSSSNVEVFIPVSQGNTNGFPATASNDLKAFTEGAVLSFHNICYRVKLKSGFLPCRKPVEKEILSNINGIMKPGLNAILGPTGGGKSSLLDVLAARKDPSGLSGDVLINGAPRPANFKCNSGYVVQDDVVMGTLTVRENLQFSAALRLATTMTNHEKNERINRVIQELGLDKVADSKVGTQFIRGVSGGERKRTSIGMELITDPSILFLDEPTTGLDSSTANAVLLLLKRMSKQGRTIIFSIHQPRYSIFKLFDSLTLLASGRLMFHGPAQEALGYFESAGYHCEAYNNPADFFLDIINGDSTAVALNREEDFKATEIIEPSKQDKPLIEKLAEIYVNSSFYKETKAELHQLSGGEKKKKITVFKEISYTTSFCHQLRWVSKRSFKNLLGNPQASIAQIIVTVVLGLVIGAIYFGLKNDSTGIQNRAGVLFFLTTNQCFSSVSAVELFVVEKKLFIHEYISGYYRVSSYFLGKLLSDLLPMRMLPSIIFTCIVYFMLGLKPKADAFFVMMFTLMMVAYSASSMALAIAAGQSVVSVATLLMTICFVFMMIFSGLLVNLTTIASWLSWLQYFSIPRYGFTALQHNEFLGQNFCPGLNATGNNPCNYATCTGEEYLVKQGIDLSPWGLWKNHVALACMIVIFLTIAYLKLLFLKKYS

| Compound | interpatient variability, CV %, AUC inf [1] [%] | interpatient variability, CV %, AUC t [1] [%] | interpatient variability, CV %, Cmax [1] [%] | tin value of cladribine ([2]; pH 1.0 solutions) [h] | tin value of cladribine ([2]; pH 2.0 solutions) [h] | active substance remained in solution ([3]; absence of cyclodextrins, after 8 hours) [%] | active substance lost ([3]; absence of cyclodextrins, after about 3 hours) | active substance maintained ([3]; 8 hours) | active substance maintained ([3]; almost 5 hours) | bioavailability after oral administration [4] [%] | bioavailability [5] [%] | degradation [6] | solubility in water | degradation (deglycosylation to Cloroadenine) (Clostridium perfringens) | degradation (deglycosylation to Cloroadenine) (Escherichia coli) | degradation (deglycosylation to Cloroadenine) (whole feces) | degradation (Bacteroides fragilis) | degradation (Enterococcus faecalis) | substrate of BCRP (ABCG2) transporter proteins [7] |
| --- | --- | --- | --- | --- | --- | --- | --- | --- | --- | --- | --- | --- | --- | --- | --- | --- | --- | --- | --- |
| Nc1nc(Cl)nc2c1ncn2[C@H]1C[C@H](O)[C@@H](CO)O1 [Mavenclad] | 29.2 | 29.8 | 43.0 | – | – | – | – | – | – | – | – | – | – | – | – | – | – | – | – |
| Nc1nc(Cl)nc2c1ncn2[C@H]1C[C@H](O)[C@@H](CO)O1 [cladribine, 2-chloro-2′-deoxyadenosine] | – | – | – | 0.37 | 1.6 | 15 | about 50% | approximately 70% | more than 80% | 35.3 | 21 | slowly or not at all | slightly soluble | rapidly deglycosylated | rapidly deglycosylated | rapidly deglycosylated | slowly or not at all | slowly or not at all | substrate of BCRP |
